Measurements reported in ChEMBL document CHEMBL1201862, “PubChem BioAssay data set” (2004).
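Following 48 hours of exposure in 96-well plates, responses at five concentrations were used to interpolate endpoints linearly. The concentration for 50% growth inhibition is given as GI50.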 Active and inactive are the calls of the source. Cut-off read from the data, not from the text of the source: active = GI50 up to about 1.1 µM and inactive = higher.

What was measured:
Assay in all cases: inhibition of tumour cell growth, NCI panel, 48 h
[1] = test system: OVCAR-8
[2] = test system: Malme-3M
[3] = test system: A498
[4] = test system: SW-620
[5] = test system: SF-295
[6] = test system: UACC-257
[7] = test system: ACHN
[8] = test system: CAKI-1
[9] = test system: HCT-15
[10] = test system: HOP-62
[11] = test system: CCRF-CEM
[12] = test system: NCI-H522
[13] = test system: OVCAR-3
[14] = test system: A549
[15] = test system: EKVX
[16] = test system: HOP-92
[17] = test system: RXF 393
[18] = test system: COLO 205
[19] = test system: MDA-MB-435
[20] = test system: PC-3

Row | Structure (SMILES) | GI50 [1] | GI50 [2] | GI50 [3] | GI50 [4] | GI50 [5] | GI50 [6] | GI50 [7] | GI50 [8] | GI50 [9] [µM] | GI50 [10] | GI50 [11] | GI50 [12] | GI50 [13] | GI50 [14] | GI50 [15] | GI50 [16] | GI50 [17] | GI50 [18] | GI50 [19] | GI50 [20]
1 | O=c1oc2ccccc2cc1-c1cn2ccccc2n1 | 3.21 µM (inactive) | 3.22 µM (inactive) | 2.24 µM (inactive) | 10.4 µM (inactive) | 3.66 µM (inactive) | 3.89 µM (inactive) | 3.49 µM (inactive) | 5.75 µM (inactive) | 16.7 | 3.24 µM (inactive) | 5.18 µM (inactive) | 3.31 µM (inactive) | 4.16 µM (inactive) | 5.48 µM (inactive) | 11.4 µM (inactive) | 16.6 µM (inactive) | 3.85 µM (inactive) | 30.1 µM (inactive) | 4.1 µM (inactive) | 4.26 µM (inactive)
2 | O=C(O)c1c2c(cc3c1CC(Cc1ccccc1)C3=O)CCC2 (stereo not given) | > 100 µM (inactive) | > 100 µM (inactive) | > 100 µM (inactive) | > 100 µM (inactive) | > 100 µM (inactive) | > 100 µM (inactive) | 63 µM (inactive) | > 100 µM (inactive) | 41.7 | > 100 µM (inactive) | 43.7 µM (inactive) | 74.6 µM (inactive) | > 100 µM (inactive) | 19.5 µM (inactive) | > 100 µM (inactive) | 29.5 µM (inactive) | > 100 µM (inactive) | > 100 µM (inactive) | > 100 µM (inactive) | 64.3 µM (inactive)
3 | NC(=O)NC(=O)c1ccc(NC(=O)CBr)cc1 | 2.26 µM (inactive) | 1.54 µM (inactive) | 14.3 µM (inactive) | 0.344 µM (active) | 13.6 µM (inactive) | 1.94 µM (inactive) | 1.44 µM (inactive) | 0.679 µM (active) | 1.8 | 1.94 µM (inactive) | 0.0769 µM (active) | 0.128 µM (active) | 0.843 µM (active) | 14.1 µM (inactive) | 2.38 µM (inactive) | 1.6 µM (inactive) | 1.77 µM (inactive) | 1.48 µM (inactive) | 1.53 µM (inactive) | 1.96 µM (inactive)
4 | Cc1cc2[nH]c(Cl)c(/C=C3\C(=O)Nc4ccccc43)c2cc1O | 3.75 µM (inactive) | 1.6 µM (inactive) | 4.05 µM (inactive) | 1.81 µM (inactive) | 2.79 µM (inactive) | 11.2 µM (inactive) | 6.53 µM (inactive) | 5.25 µM (inactive) | 1.66 | 4.93 µM (inactive) | 1.2 µM (inactive) | 1.5 µM (inactive) | 4.61 µM (inactive) | 5.08 µM (inactive) | 4.7 µM (inactive) | 8.93 µM (inactive) | 2.25 µM (inactive) | 13.8 µM (inactive) | 0.29 µM (active) | 2.2 µM (inactive)
5 | COc1cc2c(cc1O)-c1c(cnn1-c1ccc([N+](=O)[O-])cc1)CCC2 | 19.7 µM (inactive) | 5.82 µM (inactive) | 23 µM (inactive) | 23.3 µM (inactive) | 10.9 µM (inactive) | 15.5 µM (inactive) | 1.82 µM (inactive) | 10.8 µM (inactive) | 14 | 21.9 µM (inactive) | 2.94 µM (inactive) | 11.6 µM (inactive) | 16.7 µM (inactive) | 12.7 µM (inactive) | 28.1 µM (inactive) | 3.75 µM (inactive) | 50.8 µM (inactive) | 20.3 µM (inactive) | 17.4 µM (inactive) | 10.8 µM (inactive)
6 | CCOC(=O)c1cc2cc3c4c(c2oc1=O)CCCN4CCC3 | 22.1 µM (inactive) | 49.3 µM (inactive) | 17.6 µM (inactive) | 67.9 µM (inactive) | 40.4 µM (inactive) | 49.5 µM (inactive) | 34 µM (inactive) | 47.3 µM (inactive) | 25.2 | 26.2 µM (inactive) | 29.4 µM (inactive) | 19.4 µM (inactive) | 29.9 µM (inactive) | 21.5 µM (inactive) | 12 µM (inactive) | 17.1 µM (inactive) | 10.4 µM (inactive) | 24.7 µM (inactive) | 28.3 µM (inactive) | 29 µM (inactive)
7 | CC(C)[Si](OC1=C(C(=O)N(C)c2ccccc2Cl)CCCC1)(C(C)C)C(C)C | 16.2 µM (inactive) | 13 µM (inactive) | 16.9 µM (inactive) | 15.2 µM (inactive) | 7.52 µM (inactive) | 10.2 µM (inactive) | 15.5 µM (inactive) | 14.3 µM (inactive) | 16.1 | 18 µM (inactive) | 12.7 µM (inactive) | 5.77 µM (inactive) | 13.2 µM (inactive) | 1.57 µM (inactive) | 13.6 µM (inactive) | 13.3 µM (inactive) | 16.1 µM (inactive) | 14.5 µM (inactive) | 16.4 µM (inactive) | 11.4 µM (inactive)
8 | O=C1Nc2ccccc2/C1=C1/Nc2ccccc2/C1=N/OCCOCCO | 3.91 µM (inactive) | 1.43 µM (inactive) | 0.259 µM (active) | 1.82 µM (inactive) | 3.1 µM (inactive) | 17.5 µM (inactive) | 0.738 µM (active) | 0.201 µM (active) | 0.664 | 3.9 µM (inactive) | 3.27 µM (inactive) | 2.47 µM (inactive) | 2.06 µM (inactive) | 1.69 µM (inactive) | 2.67 µM (inactive) | 13.8 µM (inactive) | 1.03 µM (active) | 1.39 µM (inactive) | 3.15 µM (inactive) | 2.36 µM (inactive)
9 | CCCC(=O)Nc1cn(COC)c(C(=O)N2C[C@H]3C[C@@]34C2=CC(=O)c2[nH]cc(C)c24)n1 | 2.69 µM (inactive) | 2.44 µM (inactive) | 8.63 µM (inactive) | 3.66 µM (inactive) | 7.94 µM (inactive) | 8.71 µM (inactive) | 2.42 µM (inactive) | 2.72 µM (inactive) | 11.9 | 7.98 µM (inactive) | 0.71 µM (active) | 1.65 µM (inactive) | 10.4 µM (inactive) | 12.2 µM (inactive) | 11.2 µM (inactive) | 8.05 µM (inactive) | 8.2 µM (inactive) | 7.78 µM (inactive) | 6.81 µM (inactive) | 12.6 µM (inactive)
10 | CC1CCCCCC(=O)c2c(O)cc(O)cc2CC(=O)O1 (stereo not given) [CURVULARIN] | > 100 µM (inactive) | > 100 µM (inactive) | > 100 µM (inactive) | > 100 µM (inactive) | 94.8 µM (inactive) | 55.6 µM (inactive) | > 100 µM (inactive) | > 100 µM (inactive) | > 100 | > 100 µM (inactive) | 74.3 µM (inactive) | > 100 µM (inactive) | 96.6 µM (inactive) | > 100 µM (inactive) | 61.5 µM (inactive) | > 100 µM (inactive) | > 100 µM (inactive) | > 100 µM (inactive) | > 100 µM (inactive) | 66.8 µM (inactive)
11 | CN(C)CCCN1c2ccccc2C(C)(C)c2ccccc21 [DIMETACRINE] | 16.1 µM (inactive) | 14.7 µM (inactive) | 11 µM (inactive) | 21.2 µM (inactive) | 17.4 µM (inactive) | 11.7 µM (inactive) | 15.3 µM (inactive) | 12.6 µM (inactive) | 16.3 | 14.8 µM (inactive) | 22.4 µM (inactive) | 14.8 µM (inactive) | 14 µM (inactive) | 14.8 µM (inactive) | 17.6 µM (inactive) | 14.6 µM (inactive) | 12.9 µM (inactive) | 14.6 µM (inactive) | 13.2 µM (inactive) | 13.7 µM (inactive)
